Experimental data as given in EP0326134A1, “4-Amino-2,3-disubstituted-6,7-dihydro-5H-1-pyridine derivatives, process for their preparation and medicaments containing them” (NAUCHNO-ISSLEDOVATELSKY INSTITUT TEKHNOLOGII I BEZOPASNOSTI …, priority 1988, dated 1989).
Structures can show the parent of a compound that is named as a salt.

How the values were obtained:
[1] = molecular target: T1, M2-Cholinrezeptoren (Oryctolagus cuniculus, UniProt G1TBX1); assay: Radioligand displacement of 3H-Chinuklidin in heart; assay type: binding, Kaninchen
T1 construct: im Kaninchen-herzen (M2-Cholinre-zeptoren); from tissue; host or cells: rabbit heart
T1 sequence (G1TBX1 1-520): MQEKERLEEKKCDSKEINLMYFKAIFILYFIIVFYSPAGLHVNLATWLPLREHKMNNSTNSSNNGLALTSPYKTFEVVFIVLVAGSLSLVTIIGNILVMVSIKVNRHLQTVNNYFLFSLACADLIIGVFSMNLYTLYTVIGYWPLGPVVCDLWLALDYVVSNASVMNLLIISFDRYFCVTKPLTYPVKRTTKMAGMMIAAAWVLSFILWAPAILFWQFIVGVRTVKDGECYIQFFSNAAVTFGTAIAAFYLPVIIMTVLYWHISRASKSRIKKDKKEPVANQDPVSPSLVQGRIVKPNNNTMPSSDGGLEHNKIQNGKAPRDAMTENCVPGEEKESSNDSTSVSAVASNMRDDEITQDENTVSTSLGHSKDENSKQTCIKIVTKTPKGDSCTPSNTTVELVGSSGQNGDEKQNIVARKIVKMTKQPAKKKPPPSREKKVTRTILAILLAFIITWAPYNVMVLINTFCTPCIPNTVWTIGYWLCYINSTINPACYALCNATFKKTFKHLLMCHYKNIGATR
Source text: (§1) Dies beweisen spezielle Radioligandenuntersuchungen an einzelnen erfindungsgemäßen Verbindungen (s. Tabelle 6).

[2] = system: Nerven-Muskel-Präparat von Mäusen (n.peroneus-m.extensor digitorum longus); assay: Neuromuscular transmission in isolated nerve-muscle preparation (EPP, minEPP)
Outline: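 Mouse peroneal nerve–extensor digitorum longus preparation, isolated and perfused with O2/CO2-gassed Lilly solution. EPPs and spontaneous minEPPs were recorded by magnetograph, then analysed by computer for frequency, amplitude and duration.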

[3] = system: α2-Adrenorezeptoren; assay: Radioligand displacement of 3H-clonidine in cerebral cortex; assay type: binding, Kaninchens
Source text: as §1

[4] = system: Na -Durchlässigkeit der Membrane des Ranvier-Schnürringes; assay: Na+ permeability of the node of Ranvier membrane, voltage clamp; parameters: species or system Frosches; settings: node of Ranvier, frog sciatic nerve fibres, voltage clamp; concentration giving 50 % block of ion permeability; read-out: Blockierung der Na^+-Durchlässigkeit der Membrane Ic50 (Mol)
Outline: (§2)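 Frog sciatic nerve fibres studied at the node of Ranvier under voltage clamp, measuring membrane Na+ and K+ permeability.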

[5] = system: M-cholinrezeptoren; assay: Radioligand displacement of 3H-Propyl-2-aminobenzylat in brain; assay type: binding, Kaninchens
Source text: as §1

[6] = system: Samenleiter der Ratte; assay: Contractile activity of smooth muscle: rat vas deferens; settings: Samenleiter der Ratte, n = 9
Outline: (§3)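 Isolated rat uterus and vas deferens; effects of compounds on smooth-muscle contractile activity and on responses to acetylcholine, serotonin, adrenaline and KCl as agonists. Contraction amplitude and duration recorded mechanically.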

[7] = system: durch Skopolamin hervorgerufene Amnesie; assay: Dark avoidance assay (passive avoidance), scopolamine-induced amnesia; assay type: in vivo, Mäusen; settings: mice, compound s.c. 5 min before learning, Skopolamin i.p. 30 min before
[8] = system: K -Durchlässigkeit der Membrane des Ranvier-Schnürringes; assay: K+ permeability of the node of Ranvier membrane, voltage clamp; parameters: species or system Frosches; settings: node of Ranvier, frog sciatic nerve fibres, voltage clamp; concentration giving 50 % block of ion permeability; read-out: Blockierung der K^+-Durchlässigkeit der Membrane Ic50 (Mol)
Outline: as §2

[9] = Acute toxicity, single intraperitoneal injection, probit analysis (LD50); assay type: in vivo, Mäusen; settings: mouse, in vivo, ip, mice, i.p., read-out: LD50
Source text: Ihre akute Toxizität wurde an Mäusen (einmalige intraperitoneale Injektion) nach der Methode der Probit-Analyse nach Zichtfield, Wilcoxon, t949 untersucht. In Tabelle 2 sind die Parameter der akuten Toxizität (LDso) angegeben, die eine mäßige Toxizität der erfindungsgemäßen Verbindungen belegen.

[10] = Side effects and CNS/behaviour: tremor (TD50), sedative and m-cholinomimetic effects; assay type: in vivo; settings: in vivo, toxic dose causing tremor in 50 % of the animals
Source text: Von Interesse ist der Einfluß der erfindungsgemäßen Verbindungen auf das ZNS und das Verhalten der Tiere.

[11] = system: Uterus der Ratte; assay: Contractile activity of smooth muscle: rat uterus; settings: n = 9; for Acetylcholin 1.10^-6 (Mol): Dauer, Min.: Uterus der Ratte (as head prints); for Serotonin 1.10^-6 (Mol): Dauer, Min.: Uterus der Ratte
Outline: as §3

[12] = Konzentration 1.10^-5 Mol, 10 µM
[13] = Konzentration 1.10^-6 Mol, 1 µM

Nc1c2c(nc3c1CCC3)CCCC2 [Verbindung 40, 9-Amino-2,3,5,6,7,8-hexahydro-1 H-cyclopenta(b)chinolinhydrochloridhydrat, reference compound]
Verdrängung des 3H-Chinuklidins im Kaninchenherzen (M2-Cholinrezeptoren) [1, 12]: 0
Verdrängung des 3H-Chinuklidins im Kaninchenherzen (M2-Cholinrezeptoren) [1, 13]: 0
Stimulierung der Nerven-Muskelübertragung, in % der Amplitude: EPP ([2]; EPP = Endplattenpotential): 55%
Stimulierung der Nerven-Muskelübertragung, in % der Amplitude: minEPP ([2]; minEPP): 100%
Verdrängung des 3H-Clonidins in der Hirnrinde des Kaninchens (α2-Adrenorezeptoren) [3, 12]: 10
Verdrängung des 3H-Clonidins in der Hirnrinde des Kaninchens (α2-Adrenorezeptoren) [3, 13]: 0
α2-adrenoblockierende Wirkung ([3]; in words, from radioligand studies): fehlt jedoch praktisch
IC50 [4]: 200 µM
Verdrängung des 3H-Propyl-2-aminobenzylats im Gehirn des Kaninchens (M-cholinrezeptoren) [5, 12]: 10
Verdrängung des 3H-Propyl-2-aminobenzylats im Gehirn des Kaninchens (M-cholinrezeptoren) [5, 13]: 0
Adrenalin 1.10^-6: Dauer, Min. ([6]; Konzentration 1.10^-4 Mol): 28±0.8 Min.
Adrenalin 1.10^-6: Dauer, Min. ([6]; Konzentration 1.10^-5 Mol): 25±0.6 Min.
Einfluß auf das Gedächtnis: Zahl der Tiere in %, bei denen die Skopolaminwirkung aufgehoben wurde [7]: 60%
IC50 [8]: 450 µM
LD50 [9]: 44 mg/kg
TD50 [10]: 23.2 mg/kg
Acetylcholin 1.10^-6 (Mol): Dauer, Min. ([11]; Konzentration 1.10^-4 Mol): 30±0.9 Min.
Acetylcholin 1.10^-6 (Mol): Dauer, Min. ([11]; Konzentration 1.10^-5 Mol): 30±0.5 Min.
Serotonin 1.10^-6 (Mol): Dauer, Min. ([11]; Konzentration 1.10^-4 Mol): 30±0.5 Min.
Serotonin 1.10^-6 (Mol): Dauer, Min. ([11]; Konzentration 1.10^-5 Mol): 25±0.4 Min.
